Source: patent US20080274076A1, “Composition for Use in Controlling Aedes Aegypti Mosquitoes” (priority 2005, published 2008)

Key:
Aedes aegypti mosquitoes [1] = test: oviposition attractant effect of semio-chemicals identified in larval conditioned water; format: in vivo
From the text: The present invention also relates to a process for the preparation of compositions for use in lure and/or killing of Aedes aegypti mosquitoes. The present invention is based on the unexpected finding that Aedes aegypti mosquitoes tend to lay eggs in stagnant water where eggs of the same species of mosquitoes had been laid previously. This led the inventors to analyse various samples of water which in turn led to the finding that water in which eggs had previously been laid by Aedes aegypti mosquitoes and which had hatched into larval stage contained various semio-chemicals. Analysis of these semio-chemicals identified them as heneicosane, nonacosane, octadecane, isopropyl myristate and docosane. […] When, stagnant water in which Aedes aegypti mosquitoes had bred earlier was left untouched the incidence of further egg laying in the same water and thriving of larval population increased. […]
Aedes aegypti mosquitoes are bred and the water is collected for isolation where the mosquitoes are at larval stage. […] The extractant is analysed by various spectral techniques like IR, NMR and GCMS and the five semio-chemicals identified are heneicosane, nonacosane, octadecane, isopropyl myristate and decosane.

Aedes aegypti mosquitoes [2] = test: field test of the luring effect: open water tanks, one treated with heneicosane solution; format: in vivo
Description: Fifteen open tanks with water filled to the top were kept in the open. All the tanks were made of same material, were of the same size and contained same amount of water from the same source. The tanks were numbered consecutively and allowed to remain for a week.
All the fifteen tanks were drained of water and thoroughly cleaned. Subsequently, they were filled with water from the same source. In tank No. 1, a predetermined amount of a solution of heneicosane in n-hexane (1% w/v) was added. After fifteen days, water from each tank was analysed.
Example No. 4 was repeated 14 times with heneicosane being added in tank Nos. 2 to 15 consequentially.
Example Nos. 4 and 5 were repeated with heneicosane dissolved in n-pentane.
The above example was repeated with varying concentrations of heneicosane in the solvent.

CCCCCCCCCCCCCCCCCCCCC [heneicosane, n-heneicosane]
effectiveness as oviposition attractant among the five identified semio-chemicals (Aedes aegypti mosquitoes [1]; compared with nonacosane, octadecane, isopropyl myristate and docosane): most effective oviposition attractant
site of egg laying, stagnant water versus water containing heneicosane (Aedes aegypti mosquitoes [1]; stagnant water kept alongside water containing heneicosane): the entire egg laying took place only in water containing heneicosane
attraction of mosquitoes to lay eggs in the treated tank (Aedes aegypti mosquitoes [2]; Example 4 repeated 14 times with heneicosane added in tank Nos. 2 to 15 consequentially): each time the tank containing heneicosane attracted Aedes aegypti mosquitoes to lay their eggs therein
luring result with another solvent (Aedes aegypti mosquitoes [2]; Example Nos. 4 and 5 repeated with heneicosane dissolved in n-pentane): The results were exactly the same
mosquito larvae found in tanks (egg laying lured to treated tank) (Aedes aegypti mosquitoes [2]; field conditions, 15 open tanks, solution of heneicosane in n-hexane (1% w/v) added to tank No. 1, after fifteen days): only tank No. 1 containing the heneicosane contained mosquito larvae
